Legend:
Assay type in all cases: in vivo, human
[1] = test system: patients having Fragile X Syndrome (FXS); test: Aberrant Behavior Checklist-Community Edition (ABC-C) scores in clinical study, by FMR1 methylation status / mRNA expression; conditions: for ABC-C improvement in response over placebo / ABC-C Subscale I (Irritability), treatment difference / ABC-C Subscale II (Lethargy), treatment difference / ABC-C Subscale III (Stereotype), treatment difference / ABC-C Subscale IV (Hyperactivity), treatment difference / ABC-C Subscale V (Inappropriate Speech), treatment difference / ABC-C Total of subscales, treatment difference: day 19; for ABC-C Subscale I (Irritability), treatment difference / ABC-C Subscale II (Lethargy), treatment difference / ABC-C Subscale III (Stereotype), treatment difference / ABC-C Subscale IV (Hyperactivity), treatment difference / ABC-C Subscale V (Inappropriate Speech), treatment difference / ABC-C Total of subscales, treatment difference: versus placebo, adjusted for baseline
From the text: (§1) As used herein, “an mGluR5 responder” is an individual having FXS who is likely following therapeutic treatment with an mGluR5 antagonist to show improved behavioral symptoms as assessed using the Aberrant Behavior Checklist—Community Edition (ABC-C) measure of behavior (Bihm et al., Am. J. Ment Retard 96:209-211). The ABC-C measurement looks at various behaviors including stereotypic behavior, hyperactivity, inappropriate speech, and restricted interests. […] The behavioral symptoms may also be assessed by other methods, such as Clinical Global Impression (CGI) scale, Social Responsiveness Scale (SRS), or Repetitive Behavior Scale-Revised (RBS-R). Individuals showing an improvement according to these tests will also be determined to be an mGluR5 responder.
(§2) The present examples were performed as a follow up to a clinical trial which investigated whether the mGluR5 antagonist (−)-(3aR,4S,7aR)-4-Hydroxy-4-m-tolylethynyl-octahydro-indole-1-carboxylic acid methyl ester could provide beneficial treatment to a subject having FXS. The present study was set up to identify if a subset of patients exist that respond to (−)-(3aR,4S,7aR)-4-Hydroxy-4-m-tolylethynyl-octahydro-indole-1-carboxylic acid methyl ester treatment. In an attempt to identify such a subset of patients who respond to (−)-(3aR,4S,7aR)-4-Hydroxy-4-m-tolylethynyl-octahydro-indole-1-carboxylic acid methyl ester treatment, a study was conducted to investigate the relationship between FMR1 methylation/mRNA expression and (−)-(3aR,4S,7aR)-4-Hydroxy-4-m-tolylethynyl-octahydro-indole-1-carboxylic acid methyl ester efficacy in the study.
(§3) Among the 30 patients who completed the clinical study, 26 consented for pharmacogenetic/pharmacogenomic assessments. Genomic DNA was extracted from whole blood according to the instructions from Gentra (Minneapolis, Minn.). Total RNA was extracted from whole blood according to the instructions from Qiagen (Valencia, Calif.). A total of 26 DNA and 24 RNA samples were successfully extracted and analyzed. In addition, normal control DNAs were purchased from Coriell Institute (Camden, N.J.).
(§4) Genomic DNA was treated with bisulfite (Qiagen, Valencia, Calif.). MSP was performed using the CpG WIZ Fragile X Amplification Kit from Chemicon (Temecula, Calif.) according to manufacture's instruction. A total of 26 patients and 4 normal controls were analyzed.
(§5) FMR1 mRNA expression was measured by Taqman real-time PCR. The primers and probe were designed by Applied Biosystems (Foster City, Calif.; fragile X mental retardation 1 Hs 00924544_ml, Glyceraldehyde-3-phosphate dehydrogenase Hs 99999905_ml; ubiquitin C Hs 00824723_ml)
(§6) The expression levels of the control genes, GAPDH and UBC, were used to adjust for inter-sample variability. The data is presented as normalized Ct (cycle threshold). A Ct value≧36 is considered to be the background of the assay. A total of 24 patients and 9 normal controls were analyzed.
(§7) Genomic DNA was treated with […] (Qiagen, Valencia, Calif.). The following primers were used to amplify the FMR1 promoter with 22 CpG sites: 5′-[…]-3′ (SEQ ID NO:10); and 5′-[…]-3′ (SEQ ID NO:11). The 196-bp FMR1 promoter was cloned using the TA cloning kit from Invitrogen (Carlsbad, Calif.) and 7-13 clones per patient were sequenced using ABI3730XL (Foster City, Calif.). More details can be found in the BMD report. A total of 26 patients and 4 normal controls were analyzed.

[2] = test system: patients having Fragile X Syndrome (FXS); test: Clinical Global Impression (CGI) scale in clinical study, by FMR1 methylation status / mRNA expression; conditions: day 19; patients fully methylated (probe-based methylation assay, 12 patients analysed) and/or not expressing FMR1 mRNA; p<0.001
[3] = test system: patients having Fragile X Syndrome (FXS); test: as above; conditions: for CGI-global improvement, treatment difference / CGI-efficacy index, treatment difference: versus placebo, adjusted for baseline; for CGI-global improvement, treatment difference: decrease = improvement; for CGI-efficacy index, treatment difference: increase = improvement
From the text: as §1, §2, §3, §4, §5, §6, §7

[4] = test system: patients having Fragile X Syndrome (FXS); test: Clinical response versus placebo in clinical study (measure not given)
From the text: As used herein, “an mGluR5 responder” is an individual having FXS who is likely following therapeutic treatment with an mGluR5 antagonist to show improved behavioral symptoms as assessed using the Aberrant Behavior Checklist—Community Edition (ABC-C) measure of behavior (Bihm et al., Am. J. Ment Retard 96:209-211). The ABC-C measurement looks at various behaviors including stereotypic behavior, hyperactivity, inappropriate speech, and restricted interests. […] The behavioral symptoms may also be assessed by other methods, such as Clinical Global Impression (CGI) scale, Social Responsiveness Scale (SRS), or Repetitive Behavior Scale-Revised (RBS-R). Individuals showing an improvement according to these tests will also be determined to be an mGluR5 responder. […]
Among the 30 patients who completed the clinical study, 26 consented for pharmacogenetic/pharmacogenomic assessments. […] A total of 26 DNA and 24 RNA samples were successfully extracted and analyzed. […]
Genomic DNA was treated with bisulfite (Qiagen, Valencia, Calif.). […] A total of 26 patients and 4 normal controls were analyzed.
FMR1 mRNA expression was measured by Taqman real-time PCR. […]
The expression levels of the control genes, GAPDH and UBC, were used to adjust for inter-sample variability. […] A total of 24 patients and 9 normal controls were analyzed. […]

[5] = fully methylated patients after reclassification (MSP, bisulfite-sequencing, additional MSP), p<0.001
[6] = patients who did not express FMR1 mRNA (n = 7)
[7] = patients who expressed FMR1 mRNA (n = 17)
[8] = patients with full methylation (n = 8)
[9] = patients with partial methylation (n = 18)
[10] = reclassified: patients with full methylation (determined by MSP and sequencing) (n = 7)
[11] = reclassified: patients with partial methylation (determined by MSP and sequencing) (n = 18)
[12] = day 19, patients who did not express FMR1 mRNA (n = 7)
[13] = day 19, patients who expressed FMR1 mRNA (n = 17)
[14] = day 19, patients with full methylation (n = 8)
[15] = day 19, patients with partial methylation (n = 18)
[16] = day 19, reclassified: patients with full methylation (by MSP and sequencing) (n = 7)
[17] = day 19, reclassified: patients with partial methylation (by MSP and sequencing) (n = 18)

COC(=O)N1CC[C@@H]2[C@H]1CCC[C@@]2(O)C#Cc1cccc(C)c1 [(−)-(3aR,4S,7aR)-4-Hydroxy-4-m-tolylethynyl-octahydro-indole-1-carboxylic acid methyl ester]
ABC-C improvement in response over placebo ([1]; patients fully methylated (initial MSP) or not expressing FMR1 mRNA, p<0.001): significantly greater improvement | ABC-C improvement in response over placebo ([1]; patients fully methylated (probe-based methylation assay, 12 patients analysed) and/or not expressing FMR1 mRNA, p<0.001): significantly greater improvement | ABC-C response versus placebo [1, 5]: significantly higher than placebo | ABC-C Subscale I (Irritability), treatment difference [1, 6]: −3.69 | ABC-C Subscale II (Lethargy), treatment difference [1, 6]: −6.71 | ABC-C Subscale III (Stereotype), treatment difference [1, 6]: −3.03 | ABC-C Subscale IV (Hyperactivity), treatment difference [1, 6]: −9.12 | ABC-C Subscale V (Inappropriate Speech), treatment difference [1, 6]: −4.66 | ABC-C Total of subscales, treatment difference [1, 6]: −32.19 | ABC-C Subscale I (Irritability), treatment difference [1, 7]: −0.81 | ABC-C Subscale II (Lethargy), treatment difference [1, 7]: 1.93 | ABC-C Subscale III (Stereotype), treatment difference [1, 7]: 0.32 | ABC-C Subscale IV (Hyperactivity), treatment difference [1, 7]: −0.16 | ABC-C Subscale V (Inappropriate Speech), treatment difference [1, 7]: 1.09 | ABC-C Total of subscales, treatment difference [1, 7]: 2.23 | ABC-C Subscale I (Irritability), treatment difference [1, 8]: −4.33 | ABC-C Subscale II (Lethargy), treatment difference [1, 8]: −6.55 | ABC-C Subscale III (Stereotype), treatment difference [1, 8]: −3.96 | ABC-C Subscale IV (Hyperactivity), treatment difference [1, 8]: −8.77 | ABC-C Subscale V (Inappropriate Speech), treatment difference [1, 8]: −4.48 | ABC-C Total of subscales, treatment difference [1, 8]: −30.85 | ABC-C Subscale I (Irritability), treatment difference [1, 9]: −0.67 | ABC-C Subscale II (Lethargy), treatment difference [1, 9]: 3.76 | ABC-C Subscale III (Stereotype), treatment difference [1, 9]: 0.89 | ABC-C Subscale IV (Hyperactivity), treatment difference [1, 9]: 0.42 | ABC-C Subscale V (Inappropriate Speech), treatment difference [1, 9]: 1.09 | ABC-C Total of subscales, treatment difference [1, 9]: 5.66 | ABC-C Subscale I (Irritability), treatment difference [1, 10]: −2.66 | ABC-C Subscale II (Lethargy), treatment difference [1, 10]: −5.53 | ABC-C Subscale III (Stereotype), treatment difference [1, 10]: −5.06 | ABC-C Subscale IV (Hyperactivity), treatment difference [1, 10]: −8.55 | ABC-C Subscale V (Inappropriate Speech), treatment difference [1, 10]: −4.31 | ABC-C Total of subscales, treatment difference [1, 10]: −27.82 | ABC-C Subscale I (Irritability), treatment difference [1, 11]: −1.15 | ABC-C Subscale II (Lethargy), treatment difference [1, 11]: 2.66 | ABC-C Subscale III (Stereotype), treatment difference [1, 11]: 0.78 | ABC-C Subscale IV (Hyperactivity), treatment difference [1, 11]: −0.21 | ABC-C Subscale V (Inappropriate Speech), treatment difference [1, 11]: 0.81 | ABC-C Total of subscales, treatment difference [1, 11]: 3.10 | CGI-efficacy index improvement in response over placebo [2]: significantly greater improvement | CGI-efficacy index improvement in response over placebo ([3]; day 19, patients fully methylated (initial MSP) or not expressing FMR1 mRNA, p<0.001): significantly greater improvement | CGI-efficacy index response versus placebo [3, 5]: significantly higher than placebo | CGI-global improvement, treatment difference [3, 12]: −2.02 | CGI-efficacy index, treatment difference [3, 12]: 1.99 | CGI-global improvement, treatment difference [3, 13]: 0.56 | CGI-efficacy index, treatment difference [3, 13]: −0.47 | CGI-global improvement, treatment difference [3, 14]: −1.94 | CGI-efficacy index, treatment difference [3, 14]: 1.86 | CGI-global improvement, treatment difference [3, 15]: 0.67 | CGI-efficacy index, treatment difference [3, 15]: −0.58 | CGI-global improvement, treatment difference [3, 16]: −1.78 | CGI-efficacy index, treatment difference [3, 16]: 1.76 | CGI-global improvement, treatment difference [3, 17]: 0.58 | CGI-efficacy index, treatment difference [3, 17]: −0.43 | Difference between compound and placebo ([4]; patients partially methylated (initial MSP) or expressing FMR1 mRNA): no significant differences | Difference between compound and placebo ([4]; patients partially methylated (probe-based methylation assay) or expressing FMR1 mRNA): no significant differences
